# Laboratory results as given in article PMC3242765, “Inhibitors of Alphavirus Entry and Replication Identified with a Stable Chikungunya Replicon Cell Line and Virus-Based Assays” (PLoS ONE, 2011).
# What was measured:
# [1] = tested on: CHIKV replicon; assay: microbe, parasite or virus in culture; assay type: cell-based, Chikungunya virus (CHIKV)
# [2] = tested on: SFV-Rluc
Compound,CHIKV replicon % left [1],"SFV replication % left (surviving fraction, remaining percentage of SFV replication) [2]"
CCN1C(=O)CC(=O)N(CC)C1=S,89.2%,75.7%
CN(C)c1cccc2c(S(=O)(=O)Cl)cccc12,10.4%,4.6%
CC(C)(C)NCC(O)c1ccc(O)c(CO)c1.CC(C)(C)NCC(O)c1ccc(O)c(CO)c1.O=S(=O)(O)O (racemic) [(+/-) Salbutamol sulfate],71.9%,105.0%
CC(C)NCC(O)c1ccc(O)c(O)c1.CC(C)NCC(O)c1ccc(O)c(O)c1.O=S(=O)(O)O (racemic) [(+/-)-Isoproterenol hemisulfate salt],105.1%,110.9%
"CC12CCC(CC1=O)C2(C)C (racemic) [DL-Camphon, Campher (synth.)]",105.4%,83.9%
"O=C1c2c(O)cccc2Cc2cccc(O)c21 [1,8-Dihydroxyanthrone]",40.9%,27.2%
CCNCC(O)c1ccc(O)cc1 (centres unmarked) [1-(4-Oxyphenyl)-1-oxy-2-ethylamonoethane],105.4%,86.9%
CCCCNC(=O)NS(=O)(=O)c1ccc(N)cc1 [1-Butyl-3-sulfanilylurea [carbutamide]],67.5%,83.9%
COc1ccccc1-c1cc(=O)c2ccc3ccccc3c2o1 [2'-Methoxy-a-naphthoflavone],81.0%,45.8%
"O=C(O)c1cccc(O)c1O [2,3-Dihydroxybenzoic acid]",105.1%,93.1%
"O=C(O)c1ccc(O)cc1O [2,4-Dihydroxylbenzoic acid]",29.5%,32.1%
"O=C(O)c1cc(O)ccc1O [2,5-Dihydroxybenzoic acid]",83.7%,127.8%
"Cc1ccc(C)c(O)c1 [2,5-Dimethylphenol]",100.5%,84.6%
"O=C(O)c1c(O)cccc1O [2,6-Dihydroxybenzoic acid]",62.3%,118.7%
CC(C(=O)O)c1cccc(C(=O)O)c1 (centres unmarked) [2-(3-Carboxyphenyl)propionic acid],94.3%,105.7%
Nc1ccc(Cl)cc1C(=O)c1ccccc1F [2-Amino-5-chloro-2'-fluorobenzophenone],82.2%,167.4%
CC(=O)c1ccccc1O [2-Hydroxyacetophenone],99.4%,129.7%
O=C(O)Cc1ccccc1O [2-Hydroxyphenylacetic acid],14.3%,7.3%
"COc1cc(C(=O)O)cc(OC)c1OC [3,4,5-Trimethoxybenzoic acid]",28.8%,34.0%
"O=C(O)c1ccc(O)c(O)c1 [3,4-Dihydroxybenzoic acid]",101.6%,124.5%
"O=C(O)c1cc(O)cc(O)c1 [3,5-Dihydroxybenzoic acid]",87.8%,6.9%
O=c1oc2cc(O)ccc2cc1-c1nc2ccccc2o1 [3-(2-Benzoxazolyl)umbelliferone],61.8%,21.0%
CC(=O)CC(c1ccccc1)c1c(O)c2ccccc2oc1=O (centres unmarked) [3-(a-Acetonylbenzyl)-4-hydroxycoumarin],57.2%,79.5%
O=C(c1ccccc1)c1cc2c(ccc3ccccc32)oc1=O [3-Benzoylbenzo(F)coumarin],68.0%,39.9%
CC(=O)c1cccc(O)c1 [3-Hydroxyacetophenone],97.4%,125.8%
O=C(O)Cc1cccc(O)c1 [3-hydroxyphenylacetic acid],54.1%,110.8%
CN1C(=O)CN=C(c2ccc(Cl)cc2)c2cc(Cl)ccc21 [4'-Chlorodiazepam],105.5%,64.0%
Cc1c(N)c(=O)n(-c2ccccc2)n1C [4-Aminoantipyrine [ampyrone]],89.2%,51.6%

Compound,CHIKV replicon % left [1],"SFV replication % left (surviving fraction, remaining percentage of SFV replication) [2]"
O=c1cc(O)c2ccccc2o1 [4-Hydroxycoumarin],95.4%,100.2%
O=C(O)Cc1ccc(O)cc1 [4-Hydroxyphenylacetic acid],87.2%,103.6%
Cc1ccc(O)c(O)c1 [4-Methyl pyrocatechol],98.8%,111.1%
Cc1cc(=O)oc2cc(O)ccc12 [4-Methylumbelliferone],105.6%,90.9%
C[C@@]12CCC[C@H]1[C@@H]1CC[C@H]3CCCC[C@]3(C)[C@H]1CC2 [4-a-Androstane],85.5%,53.0%
"Cc1cc(=O)oc2cc(O)cc(O)c12 [5,7-Dihydroxy-4-methylcoumarin]",78.1%,66.7%
"Cc1cc(=O)oc2cc(O)c(O)cc12 [6,7-Dihydroxy-4-methylcoumarin]",95.4%,131.1%
"O=C(O)c1cc2cc(Br)cc(Br)c2oc1=O [6,8-Dibromocoumarin carboxylic acid]",100.1%,67.4%
COc1ccc2oc(=O)cc(C)c2c1 [6-Methoxy-4-methylcoumarin],85.4%,66.6%
Cc1ccc2oc(=O)ccc2c1 [6-Methylcoumarin],106.5%,83.6%
CCCc1cc(=O)[nH]c(=S)[nH]1 [6-Propyl-2-thiouracil],100.5%,81.0%
"Cn1c(=O)c2c(ncn2CC(O)CO)n(C)c1=O (centres unmarked) [7-(2,3-Dihydroxypropyl)theophylline]",54.3%,100.1%
CC(O)Cn1cnc2c1c(=O)n(C)c(=O)n2C (stereo not drawn) [7-(β-Hydroxypropyl)theophylline],70.9%,125.5%
COc1ccc2c(C)cc(=O)oc2c1 [7-Methoxy-4-methylcoumarin],100.6%,72.2%
C#C[C@]1(O)CC[C@H]2[C@@H]3CCc4cc(O)ccc4[C@H]3CC[C@@]21C [17 -a-ethynylestradiol],59.8%,11.7%
Oc1cc(O)c2c(c1)O[C@H](c1ccc(O)c(O)c1)[C@@H](O)C2 [(+)-Catechin],96.5%,64.5%
O=C1c2c(O)cc(O)cc2O[C@H](c2ccc(O)c(O)c2)[C@H]1O [(+)-Taxifolin],105.4%,93.7%
Cc1c(C)c2c(c(C)c1OC(=O)CCC(=O)O)CC[C@@](C)(CCC[C@H](C)CCC[C@H](C)CCCC(C)C)O2 [(+)-a-Tocopherol acid succinate],62.2%,75.3%
Oc1cc(O)c2c(c1)O[C@H](c1ccc(O)c(O)c1)[C@H](O)C2 [(-)-Epicatechin],79.6%,97.1%
O=C(O[C@@H]1Cc2c(O)cc(O)cc2O[C@@H]1c1cc(O)c(O)c(O)c1)c1cc(O)c(O)c(O)c1 [(-)-Epigallocatechin gallate],90.4%,155.3%
Oc1cc(O)c2c(c1)O[C@H](c1cc(O)c(O)c(O)c1)[C@H](O)C2 [(-)-Epigallocatechin],89.9%,101.9%
O=C(O)[C@]1(O)C[C@@H](O)[C@@H](O)[C@H](O)C1 [(-)-Quinic acid],106.9%,98.2%
COc1ccc(-c2cc(=O)c3c(O)cc(O)cc3o2)cc1 [Acacetin],103.3%,78.1%
CC(=O)Nc1ccc(O)cc1 [Acetaminophen [paracetamol]],85.2%,63.5%
CC(=O)Nc1ccccc1 [Acetanilide],92.2%,57.3%
CC(=O)Nc1nnc(S(N)(=O)=O)s1 [Acetazolamide],102.2%,71.3%
O=C1NC2NC(=O)NC2N1 (centres unmarked) [Acetyleneurea [acetylene carbamide]],105.4%,55.2%
